Columns and labels:
[1] = tested on: hypertensive actions of NPY; assay: NPY-induced increase in MAP in animals pretreated with NPY(18-36); type: in vivo, rat; settings: NPY 1 μg intra-arterially, 3 animals
Method: (§1) Saline solutions of the peptides are injected intra-arterially into conscious rats, and arterial pressure is monitored via an indwelling femoral cannula directly coupled to a pressure transducer. […] Control animals receive saline vehicle alone.

intracellular Ca++ = assay: Elevation of intracellular Ca++ concentrations; type: cell-based; settings: 100 nM NPY after 100 nM NPY (18-36)
conscious rats = assay: Effect on mean arterial blood pressure (MAP) and heart rate after intra-arterial injection in conscious rats; type: in vivo, rat
Method: as §1
Saline solutions of the peptides were administered intraarterially in a 100-μL bolus in an amount equal to about 0.4 mg/Kg body weight.

| Molecule | increase in MAP obtained by NPY administration ([1]; animals pretreated with NPY(18-36) 300 μg) [mmHg] | increase in MAP obtained by NPY administration ([1]; control animals) [mmHg] | elevation of intracellular Ca++ by NPY after addition of NPY(18-36) (intracellular Ca++) | decrease in MAP at five and ten minutes after administration (conscious rats) |
| --- | --- | --- | --- | --- |
| Neuropeptide Y [NPY] | 28±5 | 32±5 | to the same extent as under control conditions | – |
| CC[C@H](C)[C@H](NC(=O)[C@H](Cc1ccc(O)cc1)NC(=O)[C@H](Cc1c[nH]cn1)NC(=O)[C@H](CCCNC(=N)N)NC(=O)[C@H](CC(C)C)NC(=O)[C@H](C)NC(=O)[C@H](CO)NC(=O)[C@H](Cc1ccc(O)cc1)NC(=O)[C@H](Cc1ccc(O)cc1)NC(=O)[C@H](CCCNC(=N)N)NC(=O)[C@H](C)NC(=O)[C@@H](N)CC(C)C)C(=O)N[C@@H](CC(N)=O)C(=O)N[C@@H](CC(C)C)C(=O)N[C@H](C(=O)N[C@H](C(=O)N[C@@H](CCCNC(=N)N)C(=O)N[C@@H](CCC(N)=O)C(=O)N[C@@H](CCCNC(=N)N)C(=O)N[C@@H](Cc1ccc(O)cc1)C(N)=O)[C@@H](C)O)[C@@H](C)CC [pNPY(17-36)] | – | – | – | significantly decrease MAP |
